# ChEMBL document CHEMBL1122473, “Synthesis and antibacterial activity of some 3-[(alkylthio)methyl]quinoxaline 1-oxide derivatives” (1983)
# How the values were obtained:
# Assay type in all cases: functional
# Escherichia coli = test: In vitro antibacterial activity under anaerobic conditions against Escherichia coli strain 51A266
# Pasteurella multocida = test: In vitro antibacterial activity under anaerobic conditions against Pasteurella multocida strain 59A004
# Salmonella enterica = test: In vitro antibacterial activity under anaerobic conditions against Salmonella choleraesuis strain 58B242
# Streptococcus pyogenes = test: In vitro antibacterial activity under anaerobic conditions against […] pyogenes strain 2C203
# [1] = test system: Brachyspira hyodysenteriae; test: In vitro antibacterial activity under anaerobic conditions against Treponema hyodysenteriae strain 94A002
Compound,MIC (Escherichia coli) [µg/mL],MIC (Pasteurella multocida) [µg/mL],MIC (Salmonella enterica) [µg/mL],MIC (Streptococcus pyogenes) [µg/mL],MIC [1] [µg/mL]
CCCS(=O)(=O)Cc1nc2ccccc2[n+]([O-])c1C(C)=O,100,3.12,200,6.25,–
CNC(=O)c1c(CS(C)(=O)=O)nc2ccccc2[n+]1[O-],3.12,0.78,6.25,6.25,3.12
CNC(=O)c1c(CS(=O)(=O)CCO)nc2ccccc2[n+]1[O-],6.25,3.12,25,6.25,12.5
COC(=O)c1c(CS(=O)(=O)CCO)nc2ccccc2[n+]1[O-],6.25,1.56,25,0.78,1.56
CS(=O)(=O)Cc1nc2ccccc2[n+]([O-])c1S(C)(=O)=O,25,3.12,25,6.25,> 25
CS(=O)(=O)Cc1nc2ccccc2[n+]([O-])c1C#N,> 200,200,> 200,25,–
COC(=O)c1c(CS(C)(=O)=O)nc2ccccc2[n+]1[O-],3.12,0.78,6.25,3.12,1.56
COC(=O)N/N=C/c1c[n+]([O-])c2ccccc2[n+]1[O-] [CARBADOX],0.39,0.78,0.19,0.19,0.19
CC(=O)c1c(C[S+](C)[O-])nc2ccccc2[n+]1[O-] (configuration not stated),25,3.12,25,6.25,6.25
CS(=O)(=O)Cc1nc2ccccc2[n+]([O-])c1C(N)=O,1.56,1.56,3.12,0.78,6.25
CC(=O)c1c(C[S+]([O-])CCO)nc2ccccc2[n+]1[O-] (configuration not stated),25,3.12,6.25,25,–
CC(=O)c1c(CS(=O)(=O)CCO)nc2ccccc2[n+]1[O-],25,1.56,50,6.25,3.12
CC(=O)c1c(CS(C)(=O)=O)nc2ccccc2[n+]1[O-],12.5,0.78,12.5,1.56,0.19
CCS(=O)(=O)Cc1nc2ccccc2[n+]([O-])c1C(=O)NC,12.5,6.25,25,12.5,6.25
CCS(=O)(=O)Cc1nc2ccccc2[n+]([O-])c1C(C)=O,25,6.25,50,1.56,0.78
